Results on 25 molecules are retold here after ChEMBL document CHEMBL2331441, “Phosphodiesterase inhibitors. Part 5: hybrid PDE3/4 inhibitors as dual bronchorelaxant/anti-inflammatory agents for inhaled administration” (Bioorg Med Chem Lett, 2013).

In one assay the test system is Cavia porcellus. Nature of the assay: Bronchodilatory activity in guinea pig assessed as inhibition of histamine-induced bronchoconstriction at 0.1 mg/kg, iv. Format: functional.
For assay [1], the target named is T1, 3',5'-cyclic-AMP phosphodiesterase 4B (Homo sapiens, UniProt Q07343). The experiment in a line: Inhibition of PDE4B (unknown origin) by radiochemical assay.
T1 sequence (Q07343 whole entry): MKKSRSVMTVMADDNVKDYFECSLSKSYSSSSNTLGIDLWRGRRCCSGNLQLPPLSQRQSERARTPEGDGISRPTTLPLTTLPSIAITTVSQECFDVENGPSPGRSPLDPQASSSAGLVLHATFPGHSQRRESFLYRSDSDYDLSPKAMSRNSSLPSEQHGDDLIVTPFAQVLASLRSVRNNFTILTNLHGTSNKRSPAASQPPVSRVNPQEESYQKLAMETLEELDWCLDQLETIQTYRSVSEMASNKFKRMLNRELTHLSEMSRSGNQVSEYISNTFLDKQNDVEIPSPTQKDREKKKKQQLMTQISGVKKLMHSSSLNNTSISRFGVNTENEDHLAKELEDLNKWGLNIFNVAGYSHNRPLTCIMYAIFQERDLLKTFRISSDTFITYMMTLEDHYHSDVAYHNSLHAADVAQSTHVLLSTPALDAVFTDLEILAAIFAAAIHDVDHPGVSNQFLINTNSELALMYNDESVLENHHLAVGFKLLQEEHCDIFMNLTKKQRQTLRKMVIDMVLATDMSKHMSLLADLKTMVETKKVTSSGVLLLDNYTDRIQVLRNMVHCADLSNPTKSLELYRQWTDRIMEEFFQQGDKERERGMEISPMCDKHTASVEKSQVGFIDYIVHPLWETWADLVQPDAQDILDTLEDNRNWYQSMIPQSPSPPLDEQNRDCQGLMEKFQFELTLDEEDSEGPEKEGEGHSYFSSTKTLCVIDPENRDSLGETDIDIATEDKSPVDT
Assay [2] concerns the target cGMP-inhibited 3',5'-cyclic phosphodiesterase 3A (Homo sapiens, UniProt Q14432). Nature of the assay: Inhibition of PDE3A (unknown origin) by radiochemical assay.
The species named for the next assay is Homo sapiens. The experiment in a line: Selectivity ratio of IC50 for PDE3A (unknown origin) to IC50 for PDE4B (unknown origin).
Assay [3] addresses T1, 3',5'-cyclic-AMP phosphodiesterase 4B. The experiment in a line: Ratio of IC50 for KCA-1450 to compound IC50 for PDE4B (unknown origin) by radiochemical assay.
The subject of a further assay is Rattus norvegicus. Nature of the assay: Inhibition of LPS-induced leukocyte influx into rat lung at 100 ug/kg administered intratracheally 3 hrs prior LPS challenge. Format: functional. Conditions: inhaled or nasal.

Chain of cGMP-inhibited 3',5'-cyclic phosphodiesterase 3A (Q14432 whole entry): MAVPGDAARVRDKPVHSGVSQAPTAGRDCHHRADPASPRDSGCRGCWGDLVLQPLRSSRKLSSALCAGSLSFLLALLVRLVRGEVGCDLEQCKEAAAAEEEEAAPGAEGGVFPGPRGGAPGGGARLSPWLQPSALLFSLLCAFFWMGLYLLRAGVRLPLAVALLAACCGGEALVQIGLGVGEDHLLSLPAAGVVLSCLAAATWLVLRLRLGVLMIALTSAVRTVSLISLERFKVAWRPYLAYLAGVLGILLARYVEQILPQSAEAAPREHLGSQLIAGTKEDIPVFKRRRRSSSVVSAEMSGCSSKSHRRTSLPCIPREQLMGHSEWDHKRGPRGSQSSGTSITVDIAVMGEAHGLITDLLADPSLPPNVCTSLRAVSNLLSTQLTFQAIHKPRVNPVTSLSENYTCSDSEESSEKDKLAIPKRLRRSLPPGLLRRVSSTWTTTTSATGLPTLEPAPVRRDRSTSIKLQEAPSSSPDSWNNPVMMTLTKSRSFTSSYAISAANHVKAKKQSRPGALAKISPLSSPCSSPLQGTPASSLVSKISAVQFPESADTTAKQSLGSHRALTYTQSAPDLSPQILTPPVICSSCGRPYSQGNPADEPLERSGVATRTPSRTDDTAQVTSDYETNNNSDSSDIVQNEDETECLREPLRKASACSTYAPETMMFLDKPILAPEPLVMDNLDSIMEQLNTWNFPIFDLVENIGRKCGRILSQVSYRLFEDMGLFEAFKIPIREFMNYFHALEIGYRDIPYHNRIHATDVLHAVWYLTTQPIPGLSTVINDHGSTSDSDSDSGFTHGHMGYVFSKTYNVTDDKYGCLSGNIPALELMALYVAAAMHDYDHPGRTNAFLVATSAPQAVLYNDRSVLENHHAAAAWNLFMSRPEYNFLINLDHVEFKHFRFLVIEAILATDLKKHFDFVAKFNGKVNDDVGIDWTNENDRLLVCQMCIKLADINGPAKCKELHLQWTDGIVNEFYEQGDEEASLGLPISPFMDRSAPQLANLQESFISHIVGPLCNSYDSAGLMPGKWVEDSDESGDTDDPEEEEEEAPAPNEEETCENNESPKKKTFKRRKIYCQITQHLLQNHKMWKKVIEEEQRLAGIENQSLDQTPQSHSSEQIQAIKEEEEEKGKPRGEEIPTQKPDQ

As for `CCc1cc2c(-c3ccc(=O)n(CCCCOc4ccc(C5=NNC(=O)CC5C)cc4)n3)ccc(OC)n2n1` (stereo not given), the inhibition in vivo at 0.1 mg/kg in the assay on Cavia porcellus is 71%. Further, the IC50 turned out to be 20 nM in assay [1] and 2.7 nM in assay [2].
Take `COc1ccc(C2=NN(CCCCOc3ccc(C4=NNC(=O)C4(C)C)cc3F)C(=O)CC2C)c2cc(C(F)(F)F)nn12` (stereo not given): the half-inhibitory concentration (IC50) in assay [1] is 1.4 nM; in assay [2], 1520 nM.
In the same order, the values of `COc1ccc(C2=NN(CCCCOc3ccc(C4=NNC(=O)C4(C)C)c(F)c3)C(=O)CC2C)c2cc(C(F)(F)F)nn12` (stereo not given) are 0.3 nM and 58 nM.
Turning to `COc1ccc(C2=NN(CCCCOc3cccc(C4=NNC(=O)C4(C)C)c3)C(=O)CC2C)c2cc(C(F)(F)F)nn12` (stereo not given), the IC50 worked out at 0.064 nM in assay [1] and 1730 nM in assay [2]. In the assay listed under Homo sapiens, the Ratio IC50 was found to be 10000.
With `COc1ccc(C2=NNC(=O)CC2C)c2cc(C(F)(F)F)nn12` (racemic), the values for the IC50 in assay [1] and in assay [2] were 70 nM and 2380 nM, respectively.
Take `COc1ccc(C2=NN(CCCCOc3ccc(C4=NNC(=O)CC4C)cc3)C(=O)CC2C)c2cc(C(F)(F)F)nn12` (stereo not given): the IC50 stood at 0.3 nM in assay [1] and 15 nM in assay [2]. Besides, the Ratio IC50 in assay [3] came to 23.
For the molecule `COc1ccc(C2=NN(CCCCOc3ccc(C4=NNC(=O)CC4)cc3)C(=O)CC2C)c2cc(C(F)(F)F)nn12` (stereo not given), the results for the IC50 in assay [1] and in assay [2] were 0.1 nM and 360 nM, respectively.
On to `COc1ccc(C2=NN(CCCCOc3ccc(C4=NNC(=O)C4(C)C)c(F)c3F)C(=O)C2(C)C)c2sc(C(F)(F)F)nc12`, for which, in the assay with Cavia porcellus, the inhibition in vivo at 0.1 mg/kg was determined as 36%. The IC50 is 0.38 nM in assay [1] and 63 nM in assay [2].
Take `COc1ccc(C2=NN(CCCCOc3cccc(C4=NNC(=O)CC4C)c3)C(=O)CC2C)c2cc(C(F)(F)F)nn12` (stereo not given): the values for the IC50 in assay [1] and in assay [2] were 0.5 nM and 590 nM, respectively.
For `COc1ccc(C2=NNC(=O)C[C@@H]2C)c2cc(C(F)(F)F)nn12` the same measures were 42 nM and 360 nM.
For `COc1ccc(C2=NN(CCCCOc3ccc(-c4ccc(=O)[nH]n4)cc3)C(=O)CC2C)c2cc(C(F)(F)F)nn12` (stereo not given) the same measures were 20 nM and 38000 nM.
On to `CCc1cc2c(C3=NN(CCCCOc4ccc(C5=NNC(=O)CC5C)cc4)C(=O)CC3)ccc(OC)n2n1` (stereo not given), for which, in the assay on Cavia porcellus, the inhibition in vivo at 0.1 mg/kg was found to be 28%. In addition, the IC50 was 2.7 nM in assay [1] and 0.27 nM in assay [2].
As for `COc1ccc(C2=NN(CCCOc3ccc(C4=NNC(=O)CC4C)cc3)C(=O)CC2C)c2cc(C(F)(F)F)nn12` (stereo not given), the IC50 in assay [1] worked out at 3 nM; in assay [2], 140 nM. In assay [3], the Ratio IC50 was determined as 23.
For `CCc1cc2c(C3=NN(CCCOc4ccc(C5=NNC(=O)CC5C)cc4)C(=O)CC3C)ccc(OC)n2n1` (stereo not given), the IC50 in assay [1] was determined as 5.9 nM; in assay [2], 11 nM.
In the case of `COc1ccc(C2=NN(CCOc3ccc(C4=NNC(=O)CC4C)cc3)C(=O)CC2C)c2cc(C(F)(F)F)nn12` (stereo not given), the IC50 in assay [1] came to 0.66 nM; in assay [2] it was 130 nM. In addition, the Ratio IC50 in assay [3] amounted to 23.
For `COc1ccc(C2=NN(CCCCOc3ccc(C4=NNC(=O)C4(C)C)c(F)c3F)C(=O)C2(C)C)n2cc(C(F)(F)F)nc12`, the inhibition in vivo at 0.1 mg/kg with Cavia porcellus stood at 76%. Further, the results for the IC50 in assay [1] and in assay [2] were 3.2 nM and 40 nM, respectively.
`COc1ccc(C2=NN(CCCCOc3ccc(C4=NNC(=O)C4(C)C)cc3)C(=O)CC2C)c2cc(C(F)(F)F)nn12` (stereo not given): the IC50 in assay [1] was found to be 0.5 nM; in assay [2], 270 nM.
As for `COc1ccc(C2=NN(CCCCOc3ccc(C4=NNC(=O)CC4)c(F)c3F)C(=O)CC2C)c2cc(C(F)(F)F)nn12` (stereo not given), the IC50 in assay [1] is 2.2 nM; in assay [2] it was 5.1 nM.
For `COc1ccc(C2=NN(CCCCOc3ccc(C4=NNC(=O)CC4)c(F)c3F)C(=O)C2(C)C)c2sc(C(F)(F)F)nc12`, the values for the inhibition in vivo at 0.1 mg/kg in the assay on Cavia porcellus and in the assay on Rattus norvegicus were 96% and 51%, respectively. In addition, the results for the IC50 in assay [1] and in assay [2] were 0.77 nM and 6.9 nM, respectively.
For the molecule `COc1ccc(C2=NN(CCCCCOc3ccc(C4=NNC(=O)CC4C)cc3)C(=O)CC2C)c2cc(C(F)(F)F)nn12` (stereo not given), the IC50 in assay [1] turned out to be 0.2 nM; in assay [2], 72 nM. Besides, the Ratio IC50 in assay [3] stood at 23.
Consider `COc1ccc(C2=NN(CCCCOc3ccc(C4=NNC(=O)CC4)c(F)c3F)C(=O)C2(C)C)n2cc(C(F)(F)F)nc12`, for which the inhibition in vivo at 0.1 mg/kg in the assay on Cavia porcellus worked out at 87%; in the assay with Rattus norvegicus it was 56%. Moreover, the results for the IC50 in assay [1] and in assay [2] were 6.7 nM and 5 nM, respectively.
Consider `COc1ccc(C2=NN(CCCCOc3ccc(-c4n[nH]c(=O)cc4C)cc3)C(=O)CC2C)c2cc(C(F)(F)F)nn12` (stereo not given), for which the IC50 in assay [1] turned out to be 6 nM; in assay [2], 40000 nM.
On to `CCc1cc2c(C3=NN(CCCCOc4ccc(C5=NNC(=O)CC5C)cc4)C(=O)CC3C)ccc(OC)n2n1` (stereo not given), for which, in the assay with Cavia porcellus, the inhibition in vivo at 0.1 mg/kg was 96%. Further, the IC50 in assay [1] came to 1.7 nM; in assay [2], 1.2 nM.
Consider `COc1ccc(C2=NN(CCCCOc3ccc(C4=NNC(=O)C4(C)C)c(F)c3F)C(=O)CC2C)c2cc(C(F)(F)F)nn12` (stereo not given), for which the IC50 is 3.1 nM in assay [1] and 15 nM in assay [2].
For the molecule `CCc1cc2c(C3=NN(CCCCOc4ccc(C5=NNC(=O)CC5C)cc4)C(=O)C3(C)C)ccc(OC)n2n1` (stereo not given), the inhibition in vivo at 0.1 mg/kg with Cavia porcellus was determined as 92%. For the same molecule, the values for the IC50 in assay [1] and in assay [2] were 0.6 nM and 1.7 nM, respectively.
